# According to patent US10670605B2, “Cysteine reactive probes and uses thereof” (The Scripps Research Institute, priority 2015, dated 2020):
# What was measured:
# Test in all cases: Competitive isoTOP-ABPP, cell lysates
# Format in all cases: binding
# [1] = target: T1, MGMT C145 (P16455) (Homo sapiens, UniProt P16455); conditions: for isoTOP-ABPP reactivity profile ratio, P16455_C145 / isoTOP-ABPP reactivity ratio, P16455_C145: 500 μm; for isoTOP-ABPP ratio (reactivity profile), P16455_C145: 500 μm in-vitro ramos; for isoTOP-ABPP ratio, P16455_C145: 500 μM, invitro, ramos
# T1 sequence (P16455 1-207): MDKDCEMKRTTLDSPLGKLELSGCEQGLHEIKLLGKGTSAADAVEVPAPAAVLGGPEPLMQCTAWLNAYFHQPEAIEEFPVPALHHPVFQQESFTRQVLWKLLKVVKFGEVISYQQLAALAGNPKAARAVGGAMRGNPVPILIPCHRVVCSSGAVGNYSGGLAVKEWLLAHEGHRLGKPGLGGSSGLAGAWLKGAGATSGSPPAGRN
# [2] = target: T2, IRF8 C306 (Q02556) (Homo sapiens, UniProt Q02556); conditions: for isoTOP-ABPP ratio (reactivity profile), Q02556_C306: 500 μm in-vitro ramos; for isoTOP-ABPP ratio, Q02556_C306: 500 μM, invitro, ramos
# T2 sequence (Q02556 1-426): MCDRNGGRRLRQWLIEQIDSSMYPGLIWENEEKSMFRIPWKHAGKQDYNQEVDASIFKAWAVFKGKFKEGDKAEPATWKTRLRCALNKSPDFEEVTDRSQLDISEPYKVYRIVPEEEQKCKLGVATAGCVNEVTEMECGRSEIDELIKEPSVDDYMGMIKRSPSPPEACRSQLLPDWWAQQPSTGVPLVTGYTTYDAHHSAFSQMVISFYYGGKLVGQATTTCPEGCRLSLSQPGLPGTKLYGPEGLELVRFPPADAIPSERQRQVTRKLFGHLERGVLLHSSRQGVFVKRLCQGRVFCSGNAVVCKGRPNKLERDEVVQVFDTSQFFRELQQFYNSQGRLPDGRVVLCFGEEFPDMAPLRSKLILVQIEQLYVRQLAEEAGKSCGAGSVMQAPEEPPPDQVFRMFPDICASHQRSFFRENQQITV
# [3] = target: T3, USP48 C39 (Q86UV5) (Homo sapiens, UniProt Q86UV5); conditions: for isoTOP-ABPP reactivity profile ratio, Q86UV5_C39: 500 μm; for isoTOP-ABPP ratio, Q86UV5_C39: 500 μM, invitro; for R value (DMSO/fragment): 250 μM, in vitro
# T3 sequence (Q86UV5 1-1035): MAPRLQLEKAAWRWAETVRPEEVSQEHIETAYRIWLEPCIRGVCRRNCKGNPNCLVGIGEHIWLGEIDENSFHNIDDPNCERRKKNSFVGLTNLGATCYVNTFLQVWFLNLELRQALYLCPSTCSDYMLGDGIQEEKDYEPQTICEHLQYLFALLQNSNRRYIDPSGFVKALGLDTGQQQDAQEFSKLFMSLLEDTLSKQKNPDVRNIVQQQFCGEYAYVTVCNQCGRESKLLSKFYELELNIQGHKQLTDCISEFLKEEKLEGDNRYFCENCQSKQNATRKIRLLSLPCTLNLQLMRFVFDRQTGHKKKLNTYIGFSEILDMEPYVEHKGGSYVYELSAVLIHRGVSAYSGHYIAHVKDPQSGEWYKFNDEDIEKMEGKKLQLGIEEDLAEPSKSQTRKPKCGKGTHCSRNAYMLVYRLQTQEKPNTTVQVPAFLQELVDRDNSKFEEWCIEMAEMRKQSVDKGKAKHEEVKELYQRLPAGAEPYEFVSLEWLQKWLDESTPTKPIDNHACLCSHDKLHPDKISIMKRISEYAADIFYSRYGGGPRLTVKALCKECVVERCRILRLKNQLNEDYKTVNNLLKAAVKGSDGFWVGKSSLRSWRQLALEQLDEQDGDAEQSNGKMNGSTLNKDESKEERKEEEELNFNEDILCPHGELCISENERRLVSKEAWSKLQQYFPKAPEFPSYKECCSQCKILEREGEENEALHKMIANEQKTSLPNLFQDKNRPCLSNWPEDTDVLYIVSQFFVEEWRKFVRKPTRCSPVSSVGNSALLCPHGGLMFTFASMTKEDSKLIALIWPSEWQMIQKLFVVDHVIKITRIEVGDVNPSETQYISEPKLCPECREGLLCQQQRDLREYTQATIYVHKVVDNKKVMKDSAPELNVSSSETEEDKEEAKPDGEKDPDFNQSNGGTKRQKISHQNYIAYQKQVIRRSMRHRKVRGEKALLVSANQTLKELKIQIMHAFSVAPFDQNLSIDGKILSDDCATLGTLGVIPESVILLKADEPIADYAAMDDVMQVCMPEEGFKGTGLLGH
# [4] = target: LRBA C1704 (P50851) (Homo sapiens, UniProt P50851); conditions: for isoTOP-ABPP ratio, P50851_C1704: 500 μM, invitro
# LRBA C1704 (P50851), sequence (P50851 whole entry): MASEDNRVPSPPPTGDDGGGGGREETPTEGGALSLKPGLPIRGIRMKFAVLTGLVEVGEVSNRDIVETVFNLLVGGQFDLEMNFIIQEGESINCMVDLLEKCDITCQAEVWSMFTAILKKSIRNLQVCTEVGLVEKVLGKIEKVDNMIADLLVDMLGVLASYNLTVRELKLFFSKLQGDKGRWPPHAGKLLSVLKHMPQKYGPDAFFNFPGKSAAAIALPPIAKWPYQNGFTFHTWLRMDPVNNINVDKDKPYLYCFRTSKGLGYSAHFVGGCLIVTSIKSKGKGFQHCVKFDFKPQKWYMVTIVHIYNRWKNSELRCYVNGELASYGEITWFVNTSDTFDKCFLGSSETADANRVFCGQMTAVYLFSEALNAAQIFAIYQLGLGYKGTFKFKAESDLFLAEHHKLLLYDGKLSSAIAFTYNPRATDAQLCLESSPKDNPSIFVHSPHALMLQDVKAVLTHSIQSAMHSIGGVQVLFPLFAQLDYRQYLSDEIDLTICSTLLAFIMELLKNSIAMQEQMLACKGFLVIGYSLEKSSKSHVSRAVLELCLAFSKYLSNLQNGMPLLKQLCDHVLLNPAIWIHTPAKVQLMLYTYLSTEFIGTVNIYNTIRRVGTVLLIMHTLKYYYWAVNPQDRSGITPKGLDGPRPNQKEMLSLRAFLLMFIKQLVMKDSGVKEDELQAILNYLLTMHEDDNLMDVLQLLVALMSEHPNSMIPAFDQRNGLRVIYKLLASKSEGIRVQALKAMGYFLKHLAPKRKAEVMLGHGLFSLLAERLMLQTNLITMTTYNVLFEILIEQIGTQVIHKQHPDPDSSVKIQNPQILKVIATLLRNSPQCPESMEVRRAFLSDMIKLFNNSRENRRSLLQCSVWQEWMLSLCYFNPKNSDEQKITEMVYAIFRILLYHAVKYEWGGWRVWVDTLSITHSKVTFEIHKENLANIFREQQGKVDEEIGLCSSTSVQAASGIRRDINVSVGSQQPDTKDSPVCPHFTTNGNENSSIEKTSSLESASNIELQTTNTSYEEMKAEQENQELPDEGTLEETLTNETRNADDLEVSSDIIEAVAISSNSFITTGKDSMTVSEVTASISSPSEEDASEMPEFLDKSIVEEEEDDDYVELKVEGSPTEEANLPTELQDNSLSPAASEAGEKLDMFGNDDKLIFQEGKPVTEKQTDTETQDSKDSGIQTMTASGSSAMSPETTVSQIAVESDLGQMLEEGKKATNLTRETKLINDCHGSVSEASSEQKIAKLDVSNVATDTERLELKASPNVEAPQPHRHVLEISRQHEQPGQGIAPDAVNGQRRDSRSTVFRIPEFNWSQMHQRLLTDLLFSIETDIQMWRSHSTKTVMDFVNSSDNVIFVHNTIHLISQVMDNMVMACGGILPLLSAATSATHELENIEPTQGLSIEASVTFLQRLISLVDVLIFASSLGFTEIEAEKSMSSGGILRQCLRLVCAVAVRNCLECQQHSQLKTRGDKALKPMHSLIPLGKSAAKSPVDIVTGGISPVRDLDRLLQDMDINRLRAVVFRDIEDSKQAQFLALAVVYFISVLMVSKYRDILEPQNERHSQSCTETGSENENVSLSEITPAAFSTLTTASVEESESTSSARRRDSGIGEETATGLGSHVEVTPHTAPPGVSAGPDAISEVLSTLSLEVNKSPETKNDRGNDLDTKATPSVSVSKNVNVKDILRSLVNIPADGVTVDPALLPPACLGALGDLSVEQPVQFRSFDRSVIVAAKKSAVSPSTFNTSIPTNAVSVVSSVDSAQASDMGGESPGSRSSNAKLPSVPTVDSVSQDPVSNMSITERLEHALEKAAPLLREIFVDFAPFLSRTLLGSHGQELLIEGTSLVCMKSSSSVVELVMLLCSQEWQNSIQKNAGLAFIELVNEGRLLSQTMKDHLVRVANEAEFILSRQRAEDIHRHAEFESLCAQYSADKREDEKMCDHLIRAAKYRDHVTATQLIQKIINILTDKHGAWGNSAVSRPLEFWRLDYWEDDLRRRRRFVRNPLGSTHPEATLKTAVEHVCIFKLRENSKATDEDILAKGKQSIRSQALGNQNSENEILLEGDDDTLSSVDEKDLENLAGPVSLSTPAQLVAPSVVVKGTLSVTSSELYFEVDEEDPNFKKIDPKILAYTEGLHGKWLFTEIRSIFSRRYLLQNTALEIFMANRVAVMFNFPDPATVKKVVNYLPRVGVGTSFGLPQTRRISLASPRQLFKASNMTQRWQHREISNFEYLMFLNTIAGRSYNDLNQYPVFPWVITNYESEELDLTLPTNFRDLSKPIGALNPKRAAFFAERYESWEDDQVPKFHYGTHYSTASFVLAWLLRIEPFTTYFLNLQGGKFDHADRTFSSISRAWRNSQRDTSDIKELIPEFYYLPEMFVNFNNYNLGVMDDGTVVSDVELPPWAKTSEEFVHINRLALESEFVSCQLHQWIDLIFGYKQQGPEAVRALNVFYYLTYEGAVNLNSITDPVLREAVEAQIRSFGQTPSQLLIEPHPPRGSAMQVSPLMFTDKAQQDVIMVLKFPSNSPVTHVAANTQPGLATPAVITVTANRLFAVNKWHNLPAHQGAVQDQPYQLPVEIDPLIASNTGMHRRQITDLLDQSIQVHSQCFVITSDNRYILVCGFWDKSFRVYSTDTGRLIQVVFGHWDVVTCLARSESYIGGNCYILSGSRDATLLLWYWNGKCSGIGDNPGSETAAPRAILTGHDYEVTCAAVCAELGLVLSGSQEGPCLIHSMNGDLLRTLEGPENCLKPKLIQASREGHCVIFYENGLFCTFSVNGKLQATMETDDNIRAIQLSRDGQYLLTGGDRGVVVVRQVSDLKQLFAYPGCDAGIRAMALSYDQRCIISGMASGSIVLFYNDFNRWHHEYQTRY
structure (smiles),measurement,setting,value
N#CC(=Cc1ccc(-c2ccccc2Cl)o1)C(N)=O [compound 42],"isoTOP-ABPP reactivity profile ratio, P16455_C145",[1]; in-vitro_ramos,0.9
same,"isoTOP-ABPP reactivity profile ratio, Q02556_C306","[2]; 500 μm, in-vitro_ramos",0.9
COc1ccccc1OCCNC(=O)CCl [compound 28],"isoTOP-ABPP ratio (reactivity profile), P16455_C145",[1],20.0
O=C(CCl)N1CCC(C(O)(c2ccccc2)c2ccccc2)CC1 [compound 20],"isoTOP-ABPP ratio (reactivity profile), Q86UV5_C39",[3]; 500 μm in-vitro ramos,1.8
same,"isoTOP-ABPP ratio (reactivity profile), Q86UV5_C39",[3]; 500 μm in-vitro ramos_231,1.1
same,"isoTOP-ABPP ratio (reactivity profile), P16455_C145",[1],20.0
same,"isoTOP-ABPP ratio (reactivity profile), Q02556_C306",[2],2.1
same,"isoTOP-ABPP ratio (reactivity profile), P50851_C1704",[4]; 500 μm in-vitro ramos,1.7
same,"isoTOP-ABPP ratio (reactivity profile), P50851_C1704",[4]; 500 μm in-vitro ramos_231,2.0
CC(Br)C(=O)Nc1cc(C(F)(F)F)cc(C(F)(F)F)c1 (stereo not shown) [compound 24],"isoTOP-ABPP ratio (reactivity profile), Q86UV5_C39",[3]; 500 μm in-vitro ramos,1.0
same,"isoTOP-ABPP ratio (reactivity profile), P16455_C145",[1],20.0
same,"isoTOP-ABPP ratio (reactivity profile), Q02556_C306",[2],1.2
same,"isoTOP-ABPP ratio (reactivity profile), P50851_C1704",[4]; 500 μm in-vitro ramos,1.3
Cc1ccc(C=C(C#N)C(=O)NCCN2CCOCC2)cc1 [compound 41],"isoTOP-ABPP reactivity ratio, P16455_C145",[1]; in-vitro_ramos_231,1.9
same,"isoTOP-ABPP reactivity ratio, Q02556_C306","[2]; 500 μm, in-vitro_ramos",1.4
COc1cc(NC(=O)CCl)cc(OC)c1 [compound 43],"isoTOP-ABPP reactivity profile ratio, Q86UV5_C39",[3]; in-vitro_ramos_231,1.5
same,"isoTOP-ABPP reactivity profile ratio, Q02556_C306","[2]; 500 μm, in-vitro_ramos",2.7
O=C(CCl)NCCc1c[nH]c2ccccc12 [compound 13],"isoTOP-ABPP ratio, Q86UV5_C39",[3]; 231,0.8
same,"isoTOP-ABPP ratio, Q86UV5_C39",[3]; ramos,0.6
same,"isoTOP-ABPP ratio, P16455_C145",[1],20.0
same,"isoTOP-ABPP ratio, Q02556_C306",[2],0.7
same,"isoTOP-ABPP ratio, P50851_C1704",[4]; 231,0.7
same,"isoTOP-ABPP ratio, P50851_C1704",[4]; ramos,0.8
COc1ccc(C2CC(c3cccs3)=NN2C(=O)CCl)cc1 (stereo not shown) [compound 4],R value (DMSO/fragment),[3]; MDA-MB-231,1.4
same,R value (DMSO/fragment),[3]; Ramos,1.4
same,R value (DMSO/fragment),"[1]; 250 μM, in vitro, Ramos",20.0
same,R value (DMSO/fragment),"[4]; 250 μM, in vitro, Ramos",1.5
CC(C)(C)c1cc(NC(=O)CCl)on1 [compound 32],"isoTOP-ABPP reactivity ratio, P16455_C145",[1]; in-vitro_ramos,20.0
same,"isoTOP-ABPP reactivity ratio, P50851_C1704","[4]; 500 μm, in-vitro_ramos",2.0
O=C(CCl)Nc1ccc(-c2ccccc2)cc1 [compound 52],"isoTOP-ABPP reactivity profile ratio, Q86UV5_C39",[3]; in-vitro_ramos_231,0.9
same,"isoTOP-ABPP reactivity profile ratio, P50851_C1704","[4]; 500 μm, in-vitro_ramos",1.1
O=C(CCl)NC12CC3CC(CC(C3)C1)C2 [compound 21],"isoTOP-ABPP ratio (reactivity profile), Q86UV5_C39",[3]; 500 μm in-vitro ramos,1.2
same,"isoTOP-ABPP ratio (reactivity profile), Q86UV5_C39",[3]; 500 μm in-vitro ramos_231,20.0
same,"isoTOP-ABPP ratio (reactivity profile), P50851_C1704",[4]; 500 μm in-vitro ramos,1.6
C=CC(=O)N1CCC(Cc2ccccc2)CC1 [compound 53],"isoTOP-ABPP reactivity profile ratio, P16455_C145",[1]; in-vitro_ramos,1.0
O=C(CCl)Nc1cccc2ncccc12 [compound 51],"isoTOP-ABPP reactivity profile ratio, Q86UV5_C39",[3]; in-vitro_ramos,1.8
same,"isoTOP-ABPP reactivity profile ratio, P16455_C145",[1]; in-vitro_ramos,20.0
same,"isoTOP-ABPP reactivity profile ratio, Q02556_C306","[2]; 500 μm, in-vitro_ramos",1.5
same,"isoTOP-ABPP reactivity profile ratio, P50851_C1704","[4]; 500 μm, in-vitro_ramos",1.1
Cn1cc(S(=O)(=O)N2CCOCC2)cc1C(=O)NC(=O)CCl [compound 11],"isoTOP-ABPP ratio, Q86UV5_C39",[3]; ramos,1.0
same,"isoTOP-ABPP ratio, P16455_C145",[1],20.0
same,"isoTOP-ABPP ratio, Q02556_C306",[2],3.1
same,"isoTOP-ABPP ratio, P50851_C1704",[4]; ramos,1.4
